According to patent US20250213478A1, “CATIONIC LIPID HAVING DISULFIDE BOND, LIPID MEMBRANE STRUCTURE INCLUDING SAME, NUCLEIC ACID INTRODUCTION AGENT AND PHARMACEUTICAL COMPOSITION CONTAINING ANY ONE OF SAME, METHOD FOR INTRODUCING NUCLEIC ACID INTO CELL OR TARGET CELL, AND METHOD FOR PRODUCING CELLULAR PHARMACEUTICAL” (NOF Corporation, priority 2022, published 2025):

What was measured:
[1] = Measurement of Liposomal pKa of LNP (TNS fluorescence); format: physicochemical; details: LNP without nucleic acid, cationic lipid:DOPC:Chol=52.5:7.5:40 + about 1.5 mol DMG-PEG2k; pH at which relative TNS fluorescence intensity was 50%
Protocol: Lipid nanoparticles (LNP) without containing nucleic acid were used for the evaluation of Liposomal pKa.
(§1) A 10 mM ethanol solution of cationic lipid, a 5 mM ethanol solution of DOPC, and a 10 mM ethanol solution of Chol were mixed at desired ratio (cationic lipid:DOPC:Chol=52.5:7.5:40 (molar ratio)) in an Eppendorf tube to achieve the total lipid amount of 720 nmol. To the obtained mixture was further added DMG-PEG2k (2 mM ethanol solution) in an amount of about 1.5 mol with respect to the total amount 100 mol of cationic lipid, DOPC, and Chol, and then ethanol was added to prepare an ethanol solution of the lipid (total amount: 360 μL).
(§2) An acidic malic acid buffer (20 mM, pH 3.0) (1080 μL) containing NaCl at a final concentration of 30 mM and an ethanol solution (360 μL) of lipid were each weighed in a syringe. Using an ultra high-speed nanomedicament producing apparatus NanoAssmblr (manufactured by Precision NanoSystems), LNP was prepared under the conditions of addition rate of acidic buffer solution: 3 mL/min, addition rate of ethanol solution of lipid: 1 mL/min, and syringe holder temperature: 25° C., and collected in a 15 mL tube. MES buffer (pH 6.5) (3000 μL) was added to the 15 mL tube, the obtained mixture was transferred to Amicon Ultra 4, and ultrafiltration was performed under centrifugation conditions (25° C., 1000 g, 6 min) to concentrate the mixture to about 100 μL. The obtained concentrate was diluted with PBS to 4 mL, and the mixture was concentrated again under centrifugation conditions (25° C., 1000 g, 6 min), and this operation was performed twice. The obtained concentrate was diluted with PBS to a lipid concentration of 0.5 mM to give a dispersion containing LNP.
20 mM Citrate buffer, sodium phosphate buffer, and tris HCl buffer, each containing NaCl at a final concentration of 150 mM and adjusted to various pHs within the range of pH 3.0 to 10.0, were prepared. TNS (manufactured by Sigma) was diluted with ultrapure water to 0.6 mM. TNS solution (2 μL), dispersions (12 μL) containing LNP prepared in [Experimental Example 1], 1., and buffers adjusted to various pHs (186 μL) were added to a black 96 well plate. The plate was protected from light and shaken at 400 rpm for 10 min. The fluorescence intensity (excitation: 321 nm/emission: 447 nm) was measured using a plate reader (manufactured by TECAN). The relative fluorescence intensity was calculated as a percentage, with the maximum value of the fluorescence intensity in each LNP being 100% and the minimum value being 0%. Furthermore, the pH at which the relative fluorescence intensity was 50% was taken as Liposomal pKa. In Comparative Example, the cationic lipid described in the aforementioned Table 3 were used.

[2] = Particle size, PdI and zeta potential of mRNA-encapsulating LNPs (dynamic light scattering); format: physicochemical; details: mRNA-encapsulating LNP, cationic lipid:DOPC:Chol=55:5:40 + about 1 mol DMG-PEG2k; for PdI / particle size: dynamic light scattering; for zeta potential: physiological pH
Protocol: as §1, with “lipid:DOPC:Chol=55:5:40” for “lipid:DOPC:Chol=52.5:7.5:40”, “1” for “1.5”
An acidic buffer solution (total amount: 1080 μL) of nucleic acid was prepared by weighing 7.2 μg of mRNA solution (0.6 mg/mL) in a 5 mL tube and adding acidic malate buffer (20 mM, pH 3.0) containing NaCl at a final concentration of 30 mM.
as §2, with “buffer solution of nucleic” for “malic”, “acid” for “acid buffer (20 mM, pH 3.0) (1080 μL) containing NaCl at a final concentration of 30 mM”, “solution” for “solution (360 μL)”, “solution of nucleic acid:” for “solution:”, “2” for “0.5”
The particle size, PdI (Polydispersity Index), and zeta potential of the mRNA-encapsulating LNP prepared by the method of the above-mentioned 1 were measured by a dynamic light scattering method. In Comparative Example, the cationic lipid described in the aforementioned Table 3 were used.

HeLa cells = assay: Evaluation of in vitro gene expression in HeLa cell (luciferase mRNA-encapsulating LNP); format: cell-based, human; details: for cumulative luciferase luminescence intensity over 24 hr: luciferase mRNA 0.4 μg per dish, LNP cationic lipid:DOPC:Chol:DMG-PEG2k=55:5:40:1; for gene expression activity compared to Comparative Example: result in words
Protocol: (§3) LNP encapsulating mRNA that expresses luciferase (cationic lipid:DOPC:Chol:DMG-PEG2k=55:5:40:1 (molar ratio)) was prepared by the method described in [Experimental Example 2], 1.
HeLa cells, which are human cervical cancer cells, were seeded in a 3.5 cm dish at 5.0×10^4 cells/2 mL/Dish 24 hours before transfection. After 24 hours, the medium was exchanged with a culture medium (D-MEM) containing 0.1 mM D-luciferin. Prepared mRNA-encapsulating LNP was diluted with PBS such that the concentration of mRNA was about 8 μg/mL. The diluted mRNA-encapsulating LNP solution (about 50 μL, mRNA: 0.4 μg) was added to the 3.5 cm dish and set in an incubator luminometer KronosDio. The luminescence intensity of luciferase was measured for 2 min every one hour. The cumulative luciferase luminescence intensity for 24 hr was calculated from the obtained time change of expression. For example, “1.0E+06” means “1.0×10^6”. In Comparative Example, the cationic lipid described in the aforementioned Table 3 were used.

BALB/c mouse = assay: Evaluation of in vivo gene expression (luciferase mRNA-encapsulating LNP, IVIS of isolated organs)
Protocol: as §3
The prepared each mRNA-encapsulating LNP dispersion was administered from the tail vein of BALB/c mouse (male, 5-week-old). The dose of mRNA was set to 0.05 mg per 1 kg body weight of the mouse, and the dose of the mRNA-encapsulating LNP dispersion was set to 10 μL per 1 g body weight of the mouse. After 4.5 hr from the administration of the mRNA-encapsulating LNP dispersion, a PBS solution of D-luciferin potassium was administered into the abdominal cavity of the mouse. The dose of D-luciferin potassium was set to 3 mg per mouse, and the dose of the PBS solution of D-luciferin potassium was set to 200 μL per mouse. After 15 min from the administration of the PBS solution of D-luciferin potassium, the mouse was euthanized, and the liver, spleen, kidney, heart, and lung were isolated. The luminescence in each organ was quantified using an in vivo imaging system (IVIS) with an exposure of 10 sec. The amount of luminescence in each organ was quantified by image analysis using Live Imaging software attached to IVIS. The amount of luminescence (photons/sec) was calculated from the acquired image and used as an index of gene expression activity. “E+0a” (a: integer) indicated in Table 7 and Table 8 means “10^a”. For example, “1.0E+02” means “1.0×10^2”. In Comparative Example, the cationic lipid described in the aforementioned Table 3 were used.

SMILES | pKa [1] | PdI [2] | particle size [2] [nm] | zeta potential [2] [mV] | cumulative luciferase luminescence intensity over 24 hr (HeLa cells) [RLU] | relative value based on Comparative Example (amount of luminescence in spleen) (BALB/c mouse; spleen, relative to O-Ph-P4C2 LNP = 1.00) | amount of luminescence in spleen (BALB/c mouse; tail vein, mRNA 0.05 mg/kg, spleen (Table 8)) [photons/sec] | gene expression activity compared to Comparative Example (HeLa cells)
CCCCCCCC/C=C\CCCCCCCC(=O)Oc1ccc(CC(=O)OCCC2CCN(CCSSCCN3CCC(CCOC(=O)Cc4ccc(OC(=O)CCCCCCC/C=C\CCCCCCCC)cc4)CC3)CC2)cc1 [Comparative Example, O-Ph-P4C2, reference compound] | 6.3 | 0.064 | 73 | −1.5 | 1.11E+07 | 1.00 | 1.08E+07 | –
CCCCCCCCCCC(CCCCCCCCCC)C(=O)Oc1ccc(CC(=O)OCCSSCCOC(=O)CCCN(C)C)cc1 [Example 5] | 7.8 | 0.081 | 74 | −2.9 | 2.15E+08 | – | – | superior gene expression activity
CCCCCCCCCCCCCCCCC(CCCCCCCCCCCCCCCC)C(=O)Oc1ccc(CC(=O)OCCSSCCOC(=O)CCCN(C)C)cc1 [Example 8] | 7.8 | 0.101 | 72 | 5.3 | 2.83E+08 | – | – | superior gene expression activity
CCCCCCCCCCCCCCCCCCC(CCCCCCCCCCCCCCCCCC)C(=O)Oc1ccc(CC(=O)OCCSSCCOC(=O)CCCN(C)C)cc1 [Example 9] | 7.8 | 0.168 | 96 | 12.1 | 1.25E+08 | – | – | superior gene expression activity
CCCCCCCCCCCCCCCCC(CCCCCCCCCCCCCCCC)C(=O)Oc1ccc(CC(=O)OCCSSCCOC(=O)CCCN(CC)CC)cc1 [Example 10] | 7.4 | 0.077 | 80 | 4.9 | 1.90E+08 | – | – | superior gene expression activity
CCCCCCCCCCCCCCCCC(CCCCCCCCCCCCCCCC)C(=O)Oc1ccc(CC(=O)OCCSSCCOC(=O)CCCN2CCCCC2)cc1 [Example 11] | 7 | 0.079 | 86 | −0.9 | 6.71E+07 | – | – | superior gene expression activity
CCCCCCCCCCCCCCCCC(CCCCCCCCCCCCCCCC)C(=O)Oc1ccc(CC(=O)OCCSSCCOC(=O)CCCN(CCC)CCC)cc1 [Example 12] | 6.2 | 0.071 | 84 | −4.4 | 1.13E+05 | – | – | –
CCCCCCCC/C=C\CCCCCCCC(=O)Oc1ccc(CC(=O)OCCSSCCOC(=O)CCCN(C)C)cc1OC(=O)CCCCCCC/C=C\CCCCCCCC [Example 15] | 6.3 | 0.112 | 65 | 6.0 | 8.22E+07 | – | – | superior gene expression activity
CCCCCCCCCCCCCCCCC(CCCCCCCCCCCCCCCC)C(=O)Oc1ccc(CC(=O)OCCSSCCN(CC)CC)cc1 [Example 17] | 6.2 | 0.064 | 105 | −2.6 | 8.39E+04 | – | – | –
CCCCCCCCCCCCCCCCC(CCCCCCCCCCCCCCCC)C(=O)Oc1ccc(CC(=O)NCCSSCCNC(=O)CN(C)C)cc1 [Example 18] | 6.8 | 0.132 | 105 | 5.3 | 3.99E+06 | – | – | –
CCCCCCCCCCCCCCCCC(CCCCCCCCCCCCCCCC)C(=O)Oc1ccc(CC(=O)NCCSSCCNC(=O)CCN(C)C)cc1 [Example 19] | 8.2 | 0.121 | 73 | 13.1 | 2.55E+07 | – | – | superior gene expression activity
